According to the supplement of paper PMC5908809:

Key:
[1] = tested on: normal NK cells expanded with K562-aAPC; experiment: drug sensitivity score (DSS) (DSS units); higher = more sensitive; extreme values may be limits of the assay; conditions: 72 h; IL-2 2.5 ng/mL
Method: (§1)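 Drug sensitivity and resistance testing on K562-aAPC-expanded normal NK cells: 5 concentrations (10-fold steps over a 10,000-fold range), 72 h at 37 °C, viability by CellTiter-Glo normalised to DMSO and benzethonium chloride controls; DSS from the fitted curve.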

[2] = tested on: normal primary NK cells, pool 1 (3 donors), resting (IL-2 0 ng/mL); experiment: percent inhibition of viability; higher = more inhibition; conditions: 72 h
DERL-7 (IL-2 2.5 ng/mL) [3] = experiment: as above; conditions: 72 h
[4] = tested on: normal primary NK cells, pool 3 (3 donors) (IL-2 2.5 ng/mL); experiment: as above; conditions: 72 h
[5] = tested on: normal primary NK cells, pool 2 (3 donors) (IL-2 2.5 ng/mL); experiment: as above; conditions: 72 h
NKL (IL-2 2.5 ng/mL) [6] = experiment: as above; conditions: 72 h
KHYG-1 (IL-2 2.5 ng/mL) [7] = experiment: as above; conditions: 72 h
[8] = tested on: normal primary NK cells, pool 1 (3 donors) (IL-2 2.5 ng/mL); experiment: as above; conditions: 72 h
IMC-1 (IL-2 20 ng/mL) [9] = experiment: as above; conditions: 72 h
YT (IL-2 2.5 ng/mL) [10] = experiment: as above; conditions: 72 h
SNK-6 (IL-2 2.5 ng/mL) [11] = experiment: as above; conditions: 72 h
NK-YS (IL-2 2.5 ng/mL) [12] = experiment: as above; conditions: 72 h
KAI3 (IL-2 2.5 ng/mL) [13] = experiment: as above; conditions: 72 h
NK-92 (IL-2 2.5 ng/mL) [14] = experiment: as above; conditions: 72 h
[15] = tested on: normal primary NK cells, pool 1 (3 donors), resting (IL-2 0 ng/mL); experiment: drug sensitivity score (DSS) (DSS units); higher = more sensitive; extreme values may be limits of the assay; conditions: 72 h
DERL-7 (IL-2 2.5 ng/mL) [16] = experiment: as above; conditions: 72 h
[17] = tested on: normal primary NK cells, pool 3 (3 donors) (IL-2 2.5 ng/mL); experiment: as above; conditions: 72 h
[18] = tested on: normal primary NK cells, pool 2 (3 donors) (IL-2 2.5 ng/mL); experiment: as above; conditions: 72 h
NKL (IL-2 2.5 ng/mL) [19] = experiment: as above; conditions: 72 h
KHYG-1 (IL-2 2.5 ng/mL) [20] = experiment: as above; conditions: 72 h
[21] = tested on: normal primary NK cells, pool 1 (3 donors) (IL-2 2.5 ng/mL); experiment: as above; conditions: 72 h
IMC-1 (IL-2 20 ng/mL) [22] = experiment: as above; conditions: 72 h
YT (IL-2 2.5 ng/mL) [23] = experiment: as above; conditions: 72 h
SNK-6 (IL-2 2.5 ng/mL) [24] = experiment: as above; conditions: 72 h
NK-YS (IL-2 2.5 ng/mL) [25] = experiment: as above; conditions: 72 h
KAI3 (IL-2 2.5 ng/mL) [26] = experiment: as above; conditions: 72 h
NK-92 (IL-2 2.5 ng/mL) [27] = experiment: as above; conditions: 72 h
[28] = tested on: normal NK cells expanded with K562-aAPC; experiment: percent inhibition of viability; higher = more inhibition; conditions: 72 h, IL-2 2.5 ng/mL
Method: as §1

Cn1ncnc1[C@H]1c2n[nH]c(=O)c3cc(F)cc(c23)N[C@@H]1c1ccc(F)cc1 [Talazoparib] (max concentration tested 1000 nM)
Conditions	drug sensitivity score
DERL-7 (IL-2 2.5 ng/mL) [16]	5.22
IMC-1 (IL-2 20 ng/mL) [22]	7.06
KAI3 (IL-2 2.5 ng/mL) [26]	12.7
KHYG-1 (IL-2 2.5 ng/mL) [20]	7.93
NK-92 (IL-2 2.5 ng/mL) [27]	12
NK-YS (IL-2 2.5 ng/mL) [25]	18.4
NKL (IL-2 2.5 ng/mL) [19]	27.7
SNK-6 (IL-2 2.5 ng/mL) [24]	8.8
YT (IL-2 2.5 ng/mL) [23]	0
[1]	4.21
[15]	0
[17]	1.31
[18]	0.86
[21]	0

percent inhibition of viability [%]
Conditions	0.1 nM	1 nM	10 nM	100 nM	1000 nM
DERL-7 (IL-2 2.5 ng/mL) [3]	4.61	7.22	13.7	21.3	37.8
IMC-1 (IL-2 20 ng/mL) [9]	-4.58	-1.47	11.2	18.6	78.1
KAI3 (IL-2 2.5 ng/mL) [13]	3.2	10.3	25.1	48.3	74.7
KHYG-1 (IL-2 2.5 ng/mL) [7]	0.2	-0.57	14.9	31.4	71.2
NK-92 (IL-2 2.5 ng/mL) [14]	15.4	8.78	27.8	36.7	87.8
NK-YS (IL-2 2.5 ng/mL) [12]	-2.27	-0.36	27.9	81.3	96.2
NKL (IL-2 2.5 ng/mL) [6]	-2.21	28.1	72	84.1	88.6
SNK-6 (IL-2 2.5 ng/mL) [11]	1.83	6.37	16.4	33.1	90.8
YT (IL-2 2.5 ng/mL) [10]	-2.25	0.5	0.86	-5.82	-1.36
[2]	10.7	-5.43	-1.52	-18.5	4.03
[4]	-7.78	-0.35	2.46	5.72	21.3
[5]	-10.4	6.14	1.12	1.32	21.5
[8]	7.55	-5.65	4.49	-2.17	-1.39
[28]	2.07	3.56	9.75	17.4	45.1

N#Cc1ccc2[nH]c(O)c(-c3ccc(CN4CCOCC4)cn3)c2c1 [AZD-1080] (max concentration tested 10000 nM)
Conditions	drug sensitivity score
DERL-7 (IL-2 2.5 ng/mL) [16]	4.59
IMC-1 (IL-2 20 ng/mL) [22]	3.76
KAI3 (IL-2 2.5 ng/mL) [26]	0.09
KHYG-1 (IL-2 2.5 ng/mL) [20]	0.09
NK-92 (IL-2 2.5 ng/mL) [27]	0
NK-YS (IL-2 2.5 ng/mL) [25]	0.06
NKL (IL-2 2.5 ng/mL) [19]	0.66
SNK-6 (IL-2 2.5 ng/mL) [24]	0
YT (IL-2 2.5 ng/mL) [23]	0.3
[1]	0.28
[15]	0
[17]	0.08
[18]	0
[21]	0

percent inhibition of viability [%]
Conditions	1 nM	10 nM	100 nM	1000 nM	10000 nM
DERL-7 (IL-2 2.5 ng/mL) [3]	0.69	-2.27	-0.41	-4.2	88.5
IMC-1 (IL-2 20 ng/mL) [9]	-6.19	-4.98	-2.55	-0.22	68.7
KAI3 (IL-2 2.5 ng/mL) [13]	-2.28	-5.79	-9.97	-21.1	16.1
KHYG-1 (IL-2 2.5 ng/mL) [7]	-9.77	-11.1	-7.95	-10.2	15.1
NK-92 (IL-2 2.5 ng/mL) [14]	-5.77	-9.41	-10.5	-11.2	-14.5
NK-YS (IL-2 2.5 ng/mL) [12]	-7.92	-9.02	-9.19	-12.2	14.6
NKL (IL-2 2.5 ng/mL) [6]	-2.17	-4.57	-11.4	-10.8	26.2
SNK-6 (IL-2 2.5 ng/mL) [11]	-12	-18.9	-7.02	-36.2	-41.6
YT (IL-2 2.5 ng/mL) [10]	-4.13	-5.06	-2.61	-7.8	19
[2]	-0.71	6.84	6.15	-35.3	-109
[4]	6.51	4.2	7.89	-9.63	14.5
[5]	3.02	1.99	-1.33	-5.26	2.97
[8]	-13.1	1.31	-13.3	-7.59	-4.41
[28]	-8.89	-11.1	-9.66	-4.69	17.9

NC(=O)NO [Hydroxyurea] (max concentration tested 100000 nM)
Conditions	drug sensitivity score
DERL-7 (IL-2 2.5 ng/mL) [16]	0.03
IMC-1 (IL-2 20 ng/mL) [22]	0
KAI3 (IL-2 2.5 ng/mL) [26]	8.49
KHYG-1 (IL-2 2.5 ng/mL) [20]	1.16
NK-92 (IL-2 2.5 ng/mL) [27]	6.31
NK-YS (IL-2 2.5 ng/mL) [25]	1.89
NKL (IL-2 2.5 ng/mL) [19]	6.01
SNK-6 (IL-2 2.5 ng/mL) [24]	0
YT (IL-2 2.5 ng/mL) [23]	0.2
[1]	4.07
[15]	4.95
[17]	0
[18]	0.1
[21]	0

percent inhibition of viability [%]
Conditions	10 nM	100 nM	1000 nM	10000 nM	100000 nM
DERL-7 (IL-2 2.5 ng/mL) [3]	2.03	-0.08	8.03	-3.4	12.6
IMC-1 (IL-2 20 ng/mL) [9]	-6.14	-2.56	-2.39	-0.1	9.95
KAI3 (IL-2 2.5 ng/mL) [13]	24.5	13.1	12.7	20.9	51.8
KHYG-1 (IL-2 2.5 ng/mL) [7]	-10.9	-7.34	-3.16	8.85	17.1
NK-92 (IL-2 2.5 ng/mL) [14]	6.26	6.63	2.07	31.3	48.5
NK-YS (IL-2 2.5 ng/mL) [12]	-0.41	-2.69	-1.46	3.98	29.3
NKL (IL-2 2.5 ng/mL) [6]	4.79	-0.36	15	24.1	48.3
SNK-6 (IL-2 2.5 ng/mL) [11]	15.2	-7.82	-13.1	-12.9	1.36
YT (IL-2 2.5 ng/mL) [10]	-10.8	-9.74	-3.92	0.46	14.2
[2]	15.8	15.8	15.4	15.8	15.6
[4]	6.75	1.29	8.4	-5.82	7.32
[5]	1.52	0.13	10.8	4.35	13.4
[8]	-2.1	5.26	3.61	-8.28	4.04
[28]	2.1	-5.76	-2.1	8.98	49.1

C[C@H](Nc1ncnc2nc[nH]c12)c1cc2cccc(Cl)c2c(=O)n1-c1ccccc1 [Duvelisib] (max concentration tested 500 nM)
Conditions	drug sensitivity score
DERL-7 (IL-2 2.5 ng/mL) [16]	6.16
IMC-1 (IL-2 20 ng/mL) [22]	0
KAI3 (IL-2 2.5 ng/mL) [26]	1.4
KHYG-1 (IL-2 2.5 ng/mL) [20]	0.45
NK-92 (IL-2 2.5 ng/mL) [27]	7.08
NK-YS (IL-2 2.5 ng/mL) [25]	0.07
NKL (IL-2 2.5 ng/mL) [19]	3.86
SNK-6 (IL-2 2.5 ng/mL) [24]	2.8
YT (IL-2 2.5 ng/mL) [23]	0.15
[1]	4.43
[15]	0
[17]	0.66
[18]	1.9
[21]	0.83

percent inhibition of viability [%]
Conditions	0.05 nM	0.5 nM	5 nM	50 nM	500 nM
DERL-7 (IL-2 2.5 ng/mL) [3]	-0.14	9.15	10.2	25.2	56.5
IMC-1 (IL-2 20 ng/mL) [9]	0.88	-0.84	-0.96	-0.33	6.98
KAI3 (IL-2 2.5 ng/mL) [13]	-4.68	0.86	7.47	8.25	24.3
KHYG-1 (IL-2 2.5 ng/mL) [7]	1.1	3.56	6.06	5.02	18.1
NK-92 (IL-2 2.5 ng/mL) [14]	-9.06	-4.46	22.4	26.1	42.3
NK-YS (IL-2 2.5 ng/mL) [12]	-2.69	-4.82	0.82	-1.23	13
NKL (IL-2 2.5 ng/mL) [6]	-10.5	7.21	0.54	24.6	17.3
SNK-6 (IL-2 2.5 ng/mL) [11]	-0.58	4.35	2.29	9.46	32.8
YT (IL-2 2.5 ng/mL) [10]	0.13	2.78	3.52	2.82	12.4
[2]	0.72	-3.61	2.62	-2.38	3.26
[4]	-13.6	-1.02	-2.45	-0.85	21.8
[5]	-6.04	4.46	6.08	11.3	26.1
[8]	-0.52	-4.76	3.49	6.72	18.7
[28]	-2.59	4.75	5.15	19.8	45.7
